In the supplement of paper PMC10307832:

What was measured:
Assay in all cases: relative viability (nuclei count vs DMSO), 5 days (fraction); higher = more cells survive
Irinotecan + Trametinib = compound: CCc1c2c(nc3ccc(OC(=O)N4CCC(N5CCCCC5)CC4)cc13)-c1cc3c(c(=O)n1C2)COC(=O)[C@]3(O)CC [Irinotecan] + CC(=O)Nc1cccc(-n2c(=O)n(C3CC3)c(=O)c3c(Nc4ccc(I)cc4F)n(C)c(=O)c(C)c32)c1 [Trametinib] (partner 0.02 µM)
How it was run: (§1)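 Nuclei were stained with Hoechst during a one-step fixation (final 0.05% Triton X-100, 1% formaldehyde, 1 ug/ml Hoechst) carried out 5 days after dosing, then counted on 4× images. The cells, lung cancer lines in 1536-well plates, had been dosed by pin tool the day after seeding with one drug alone or a fixed anchor-drug dose plus five library-drug doses (not always all listed) in √10 steps. Relative viability is the nuclei count in treated wells divided by that in vehicle wells, and each value is the median of duplicate plates.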

RU-SKI 43 + Alpelisib = compound: CC[C@@H](C)CNCC(=O)N1CCC2=C([C@@H]1COC3=CC=CC(=C3)C)C=CS2 [RU-SKI 43] + Cc1nc(NC(=O)N2CCC[C@H]2C(N)=O)sc1-c1ccnc(C(C)(C)C(F)(F)F)c1 [Alpelisib] (partner 2 µM)
How it was run: as §1

MK-8033 + Lapatinib = compound: Cn1cc(-c2cnc3ccc4ccc(CS(=O)(=O)NCc5ccccn5)cc4c(=O)c3c2)cn1 [MK-8033] + CS(=O)(=O)CCNCc1ccc(-c2ccc3ncnc(Nc4ccc(OCc5cccc(F)c5)c(Cl)c4)c3c2)o1 [Lapatinib] (partner 2 µM)
How it was run: as §1

Irinotecan + Olaparib = compound: CCc1c2c(nc3ccc(OC(=O)N4CCC(N5CCCCC5)CC4)cc13)-c1cc3c(c(=O)n1C2)COC(=O)[C@]3(O)CC [Irinotecan] + O=C(c1cc(Cc2n[nH]c(=O)c3ccccc23)ccc1F)N1CCN(C(=O)C2CC2)CC1 [Olaparib] (partner 8 µM)
How it was run: as §1

Row | Cell Line | relative viability (Irinotecan + Trametinib; first compound 0.6325 µM) | relative viability (Irinotecan + Trametinib; first compound 2 µM) | relative viability (Irinotecan + Trametinib; first compound 6.325 µM) | relative viability (Irinotecan + Trametinib; first compound 20 µM) | relative viability (RU-SKI 43 + Alpelisib; first compound 0.1 µM) | relative viability (RU-SKI 43 + Alpelisib; first compound 0.3162 µM) | relative viability (RU-SKI 43 + Alpelisib; first compound 1 µM) | relative viability (RU-SKI 43 + Alpelisib; first compound 3.162 µM) | relative viability (RU-SKI 43 + Alpelisib; first compound 10 µM) | relative viability (MK-8033 + Lapatinib; first compound 0.02 µM) | relative viability (MK-8033 + Lapatinib; first compound 0.06325 µM) | relative viability (MK-8033 + Lapatinib; first compound 0.2 µM) | relative viability (MK-8033 + Lapatinib; first compound 0.6325 µM) | relative viability (MK-8033 + Lapatinib; first compound 2 µM) | relative viability (Irinotecan + Olaparib; first compound 0.6325 µM) | relative viability (Irinotecan + Olaparib; first compound 2 µM) | relative viability (Irinotecan + Olaparib; first compound 6.325 µM) | relative viability (Irinotecan + Olaparib; first compound 20 µM)
1 | SK-LU-1 | 0.36 | 0.417 | 0.399 | 0.316 | 0.931 | 1.31 | 1.25 | 1.13 | 1.01 | 0.893 | 0.82 | 0.879 | 0.807 | 0.859 | 0.312 | 0.265 | 0.29 | 0.218
2 | SK-MES-1 | 0.528 | 0.557 | 0.311 | 0.173 | 0.893 | 0.879 | 1.01 | 1.15 | 0.892 | 0.433 | 0.437 | 0.478 | 0.459 | 0.441 | 0.364 | 0.293 | 0.325 | 0.255
3 | SW 1573 |  | 0.432 | 0.138 | 0.0925 | 0.884 | 0.937 | 0.695 | 0.793 | 0.637 | 1.06 | 1.09 | 0.976 | 1.14 | 0.994 | 0.267 | 0.239 | 0.157 | 0.121
